According to PubChem BioAssay (NCI):
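Method: 48-hour compound exposure of cells in 96-well plates, five concentrations, linear interpolation of endpoints. TGI: concentration producing complete growth inhibition.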

Tests used:
Assay in all cases: growth of human tumour cells (NCI), 48 h
NCI-H460 lung = system: NCI-H460 lung
MDA-MB-435 = system: MDA-MB-435
SR leukemia = system: SR leukemia
SK-MEL-28 melanoma = system: SK-MEL-28 melanoma
SK-OV-3 ovarian = system: SK-OV-3 ovarian
SK-MEL-2 melanoma = system: SK-MEL-2 melanoma
U251 CNS = system: U251 CNS
TK-10 renal = system: TK-10 renal
HCT-116 colon = system: HCT-116 colon
NCI/ADR-RES ovarian = system: NCI/ADR-RES ovarian
NCI-H23 lung = system: NCI-H23 lung
COLO 205 colon = system: COLO 205 colon
MOLT-4 leukemia = system: MOLT-4 leukemia
A549 NSCLC = system: A549 NSCLC
HOP-92 NSCLC = system: HOP-92 NSCLC
T-47D breast = system: T-47D breast
MCF7 breast = system: MCF7 breast
SF-539 CNS = system: SF-539 CNS
NCI-H522 lung = system: NCI-H522 lung

Row | Compound | TGI (NCI-H460 lung) [µM] | TGI (MDA-MB-435) [µM] | TGI (SR leukemia) [µM] | TGI (SK-MEL-28 melanoma) [µM] | TGI (SK-OV-3 ovarian) [µM] | TGI (SK-MEL-2 melanoma) [µM] | TGI (U251 CNS) [µM] | TGI (TK-10 renal) [µM] | TGI (HCT-116 colon) [µM] | TGI (NCI/ADR-RES ovarian) [µM] | TGI (NCI-H23 lung) [µM] | TGI (COLO 205 colon) [µM] | TGI (MOLT-4 leukemia) [µM] | TGI (A549 NSCLC) [µM] | TGI (HOP-92 NSCLC) [µM] | TGI (T-47D breast) [µM] | TGI (MCF7 breast) [µM] | TGI (SF-539 CNS) [µM] | TGI (NCI-H522 lung) [µM]
1 | CCNC12CCC(C1)C(C)(C)C2=O (stereo unspecified) | > 100 | > 100 | > 100 | > 100 | > 100 | > 100 | > 100 | > 100 | > 100 | > 100 | > 100 | > 100 | > 100 | > 100 | > 100 | > 100 | > 100 |  | 
2 | O=C1OC(C2(O)OC(=O)c3ccccc32)c2ccccc21 (stereo unspecified) | > 100 | > 100 | > 100 | > 100 | > 100 | > 100 | > 100 | > 100 | > 100 | > 100 | > 100 | > 100 | > 100 | > 100 | > 100 | > 100 | > 100 | > 100 | > 100
3 | O=C(NNC(=S)NCc1ccccc1)c1csc(NC(=S)NC2CCCCC2)n1 |  | 82.9 | > 100 |  | > 100 | 65.7 | > 100 | > 100 | 72.3 | 96.4 | > 100 | 49.6 | > 100 | > 100 |  | 95.4 | > 100 | > 100 | > 100
4 | COc1ccc(C2=C(N)c3ncccc3C2=O)cc1 | > 100 | > 100 | > 100 | > 100 | > 100 | > 100 | > 100 | > 10 | > 100 | > 100 | > 100 | > 100 | > 100 |  | > 10 | > 100 | > 100 | > 100 | 
5 | CSc1nc(C)c(CCOC(C)=O)c(Cl)n1 | > 100 | > 100 | > 100 | > 100 | > 100 |  | > 100 | > 100 | > 100 | > 100 | > 100 | > 100 | > 100 | > 100 | > 100 | > 100 | > 100 | > 100 | > 100
6 | O=C1/C(=C/c2ccc(Oc3ccccc3)cc2)N=C(c2ccccc2)N1c1ccc(S(=O)(=O)Nc2nccs2)cc1 | > 100 | 6.86 | 25 | > 100 | > 100 | 16.1 | > 100 | > 100 | 35.4 | 46.6 | > 100 | 22.2 | 71.2 | > 100 | 99.7 | 77.1 | 38 | > 100 | 
7 | CSc1nc2c(c(N3CCOCC3)n1)C(O)n1c(nc3ccccc31)S2 (stereo unspecified) | > 100 | > 100 | > 100 |  | > 100 | > 100 | > 100 | > 100 | > 100 | > 100 | > 100 |  | > 100 | > 100 | > 100 | > 100 | > 100 | 8.77 | > 100
8 | CC1CN(c2cc3c(cc2F)c(=O)c(C(=O)O)cn3-c2ccc(F)cn2)CC(C)N1 (stereo unspecified) | > 100 | > 100 | > 100 | > 100 | > 100 |  | > 100 | > 100 | > 100 | > 100 | > 100 | > 100 | > 100 | > 100 | > 100 | > 100 | > 100 | > 100 | > 100
9 | N=CN=CC(=S)O[C@@H]1C(=O)N2CCC[C@@]23CCCC[C@@H]13 | > 12.5 | > 12.5 | > 12.5 | > 12.5 | > 12.5 | > 12.5 | > 12.5 | > 12.5 | > 12.5 | > 12.5 | > 12.5 | > 12.5 |  | > 12.5 |  | > 12.5 | > 12.5 |  | > 12.5
10 | CC(=O)n1cc(OP(=O)(Oc2ccccc2)Oc2ccccc2)c2ccccc21 | 50.8 | 50.3 | 72.4 | 86 |  | 77 | > 100 | > 100 | 92.2 | 44.3 | > 100 | 27.2 | 50.9 | > 100 |  | 80.2 | 31.5 | 42.5 | 
11 | CCS(=O)(=O)CCn1c(=O)c2c(ncn2C)n(C)c1=O | > 100 | > 100 | > 100 | > 100 |  | > 100 | > 100 | > 100 | > 100 | > 100 | > 100 | > 100 | > 100 | > 100 | > 100 | > 100 | > 100 | > 100 | > 100
12 | O=C1C=CC(=O)c2c(O)c(Br)c(Br)c(O)c21 | 34.1 | 8.19 | 0.289 | 4.91 | 35.5 | 46.6 | 33.7 | 6.12 | 8.57 | 58.7 | 13.3 | 2.46 | 0.549 | 41.5 | 4.18 | 6.04 | 5.48 | 30.5 | 
13 | O=c1[nH]c(=O)n(C2CC(O)C(CO)O2)c2nc3ccc4cc5ccccc5cc4c3nc12 (stereo unspecified) |  | > 100 | > 100 | > 100 | > 100 | > 100 | > 100 | > 100 | > 100 | > 100 | > 100 | > 100 | > 100 | > 100 | > 100 | > 100 | > 100 | > 100 | > 100
